Results on 1 compound are retold here after patent US10905680B2, “Methods of treatment for cholestatic and fibrotic diseases” (Genfit, priority 2016, dated 2021).

Series [1] relates to human primary hepatic stellate cells (hHSC). Nature of the series: TGFβ1-induced expression of α-SMA protein in human HSC (ELISA). It is filed as cell-based. The conditions noted are these: TGFβ1 1 ng/ml, 48 hours. On the procedure: Serum-deprived HSC were preincubated for 1 hour with NTZ (A) or TZ (B) before the activation with the profibrogenic cytokine TGFβ1 (1 ng/ml). After 48 hours of incubation, the expression of α-SMA was measured by ELISA. The obtained values were transformed into percentage inhibition over TGFβ1 control. Data are presented as mean (triplicates)±standard deviation (SD). Statistical analyses were performed by one-way ANOVA followed by Bonferroni post-hoc tests, using Sigma Plot 11.0 software. [*: p<0.05; **: p<0.01; ***: p<0.001 (comparison versus TGFβ1 1 ng/mL group)]. The curve fitting and the calculation of half maximal inhibitory concentration (IC50) were performed with XLFit software 5.3.1.3. The human primary hepatic stellate cells (hHSC) (Innoprot) were cultured in STeCM medium (ScienCell cat #5301) that was supplemented with 2% fetal bovine serum (FBS, ScienCell cat #0010), 1% penicillin/streptomycin (ScienCell cat #0503) and stellate cell growth supplement (SteCGS; ScienCell cat #5352). Cell culture flasks were coated with Poly-L Lysine (Sigma cat # P4707) for a better adherence. The human primary hepatic stellate cells (hHSC) (Innoprot) were cultured under standard conditions, as described above. The cells were subsequently plated at a density of 7×10^4 cells/well into 24-well plates for gene expression studies, and at a density of 2×10^4 cells/well into 96-well plates for the measure of α-SMA by ELISA. The next day, cell culture medium was removed, and cells were washed with PBS (Invitrogen cat #14190). hHSC were deprived for 24 hours in serum-free and SteCGS-free medium. For the treatments with NTZ or TZ, the serum-deprived hHSC were preincubated for 1 hour with the compounds followed by the addition of the profibrogenic stimuli TGFβ1 (PeproTech cat #100-21, 1 ng/mL) in serum-free and SteCGS-free medium for an additional 24 or 48 hour period (the timepoint is indicated in the figure legends). […] The level of α-SMA was measured using a Sandwich ELISA. […]
In general terms: ELISA stands for enzyme-linked immunosorbent assay.

The test system of the next series is HSC. Nature of the series: Toxicity assays in HSC. The conditions noted are these: data not shown. It is filed as cell-based, human.
For series [2], the system named is Human Intestinal Myofibroblasts (InMyoFib). In words: TGFβ1-induced expression of α-SMA protein in human intestinal fibroblasts (ELISA). Type of series: cell-based. The note with it: concentration of 1 μM; TGFβ1 3 ng/ml, 48 hours. The protocol:
NTZ (A) or TZ (B) were added to serum-deprived intestinal fibroblasts (InMyoFib) 1 hour before the activation with TGFβ1 (3 ng/ml). After 48 hours of incubation, the expression of α-SMA was measured by ELISA. The obtained values were transformed into percentage inhibition over TGFβ1 control. Data are presented as mean (triplicates)±standard deviation (SD). Statistical analyses were performed by one-way ANOVA followed by Bonferroni post-hoc tests, using Sigma Plot 11.0 software. [*: p<0.05; **: p<0.01; ***: p<0.001 (comparison versus TGFβ1 3 ng/mL group)].
The Human Intestinal Myofibroblasts (InMyoFib) (Lonza) were cultured in Smooth Muscle Cell Basal Medium (SmBM-2™) (Lonza cat # CC-3181) that was supplemented with SmGM™-2 BulletKit™ (Lonza cat # CC-4149). The complete medium contains 5% fetal bovine serum. For the activation experiments with TGFβ1, the inMyoFib were plated at a density of 10×10^3 cells per well in 96-well plates. The next day, cell-culture medium was removed, and cells were washed with PBS (Invitrogen cat #14190). InMyoFib were deprived for 24 hours in serum-free, insulin-free and rhFGF-B-free medium. […]
The level of α-SMA was measured using a Sandwich ELISA. […]

Each structure is given as a SMILES string.

In the case of `O=C(Nc1ncc([N+](=O)[O-])s1)c1ccccc1O` [TZ, 2-hydroxy-N-(5-nitro-2-thiazolyl)benzamide], the IC50 in series [1] (Homo sapiens, 1 h preincubation, read-out: IC50 (level of α-SMA in TGFβ-induced HSCs)) lay in the range of 100 to 3000 nM. The “level of α-SMA in TGFβ-induced HSCs” value in series [1] is “profile similar to the parent drug”. Also, the “toxicity or apoptosis of HSC” value in the series with HSC is reported as “not due to toxicity or apoptosis”. Also, in series [2], the “antifibrotic effects (α-SMA) in human Intestinal myofibroblasts” value is listed as “significant antifibrotic effects”.

One may read the IC50 as the concentration needed to halve the response being measured.
